Data reported in US11584740B2 (priority 2017, dated 2023).

Experiments:
[1] = tested on: Botryotinia fuckeliana (Botrytis cinerea); assay: Botryotinia fuckeliana (Botrytis cinerea) / liquid culture (gray mould); assay type: cell-based; conditions: 20 ppm; compared to untreated control; inhibition of growth determined photometrically 3-4 days after application, 24° C.
Protocol: Botryotinia fuckeliana (Botrytis cinerea)/Liquid Culture (Gray Mould)
Conidia of the fungus from cryogenic storage are directly mixed into nutrient broth (Vogels broth). After placing a (DMSO) solution of test compound into a microtiter plate (96-well format), the nutrient broth containing the fungal spores is added. The test plates are incubated at 24° C. and the inhibition of growth is determined photometrically 3-4 days after application.

[2] = tested on: Glomerella lagenarium (Colletotrichum lagenarium); assay: Glomerella lagenarium (Colletotrichum lagenarium) / liquid culture (anthracnose); assay type: cell-based; conditions: 20 ppm; compared to untreated control; inhibition of growth measured photometrically 3-4 days after application, 24° C.
Protocol: Glomerella Lagenarium (Colletotrichum lagenarium)/Liquid Culture (Anthracnose)
Conidia of the fungus from cryogenic storage are directly mixed into nutrient broth (PDB potato dextrose broth). After placing a (DMSO) solution of test compound into a microtiter plate (96-well format), the nutrient broth containing the fungal spores is added. The test plates are incubated at 24° C. and the inhibition of growth is measured photometrically 3-4 days after application.

[3] = tested on: Fusarium culmorum; assay type: cell-based; conditions: 20 ppm; compared to untreated control; inhibition of growth determined photometrically 3-4 days after application, 24° C.
[4] = tested on: Gaeumannomyces graminis; assay: Gaeumannomyces graminis / liquid culture (take-all of cereals); assay type: cell-based; conditions: 20 ppm; compared to untreated control; inhibition of growth determined photometrically 4-5 days after application, 24° C.
Protocol: Gaeumannomyces graminis/Liquid Culture (Take-all of Cereals)
Mycelial fragments of the fungus from cryogenic storage were directly mixed into nutrient broth (PDB potato dextrose broth). After placing a (DMSO) solution of test compound into a microtiter plate (96-well format), the nutrient broth containing the fungal spores iss added. The test plates are incubated at 24° C. and the inhibition of growth is determined photometrically 4-5 days after application.

[5] = tested on: Monographella nivalis (Microdochium nivale); assay: Monographella nivalis (Microdochium nivale) / liquid culture (foot rot cereals); assay type: cell-based; conditions: 20 ppm; compared to untreated control; inhibition of growth determined photometrically 4-5 days after application, 24° C.
Protocol: Monographella nivalis (Microdochium nivale)/Liquid Culture (Foot Rot Cereals)
Conidia of the fungus from cryogenic storage are directly mixed into nutrient broth (PDB potato dextrose broth). After placing a (DMSO) solution of test compound into a microtiter plate (96-well format), the nutrient broth containing the fungal spores is added. The test plates are incubated at 24° C. and the inhibition of growth is determined photometrically 4-5 days after application.

[6] = tested on: Magnaporthe grisea (Pyricularia oryzae); assay type: cell-based; conditions: 20 ppm; compared to untreated control; inhibition of growth determined photometrically 3-4 days after application, 24° C.

CC(C)CC(C)(Cc1ccc(Cl)s1)C(=O)Nc1cnc2c(F)cccc2c1 (stereo not shown) [Compound E1, 2-[(5-chloro-2-thienyl)methyl]-N-(8-fluoro-3-quinolyl)-2,4-dimethyl-pentanamide]
at least 80%: control of Botryotinia fuckeliana [1] | control of Glomerella lagenarium [2] | control of Fusarium culmorum [3] | control of Gaeumannomyces graminis [4] | control of Monographella nivalis [5] | control of Magnaporthe grisea [6]
142 to 145 °C: melting point
